{"source": "patent US20120251528A1", "about": "“Non-Human Mammal Model Of Human Hematopoietic Cancer” (priority 2009, published 2012)", "key": {"GFP+ leukemic cells": {"system": "GFP+ leukemic cells", "assay": "Combinatorial treatment of Alemtuzumab and cyclophosphamide in secondary GFP/myc/bcl mice: GFP+ cells per organ", "type": "in vivo, mouse", "conditions": "9 days after beginning of treatment; for effect on the leukemia in the bone marrow: single treatment", "procedure": "Absolute number of GFP+leukemic cells per organ was assessed by FACS and absolute count calculation.\nCohorts of secondary recipients were generated and divided into treatment groups as described above."}, "GFP/myc/bcl cells [1]": {"system": "GFP/myc/bcl cells", "assay": "Cumulative survival of secondary GFP/myc/bcl mice, Alemtuzumab vs control", "type": "in vivo, mouse", "conditions": "Log-rank test; FIG. 4C", "method": "(§3) Each mouse in a cohort of secondary mice was injected with ˜10^6 GFP+ cells from the same primary donor mouse. 18-20 days later, mice were divided into 2 groups, and stratified for the density of GFP+ cells found in their peripheral blood (i.e. having the same (or similar) number of GFP+ cells/uL of blood).\n(§4) Two days after completing the course of treatment, several mice were euthanized and the number of GFP+ cells in various organs was determined."}, "GFP/myc/bcl cells [2]": {"system": "GFP/myc/bcl cells", "assay": "Complement-dependent cytotoxicity (CDC) in vitro, Annexin-V-PE/7-AAD flow cytometry", "type": "cell-based, human", "conditions": "1-100 μg/ml, 48 h", "procedure": "Media were supplemented with human, murine BL6- as NSG-derived serum. Serum-free media and heat-inactivated serum served as control. Cell viability was assessed by Annexin-V-PE/7-AAD flow cytometry after 48 h.\n(§1) Antibody-bound leukemic cells can also be killed by complement-mediated lysis."}, "ALL-cells": {"system": "ALL-cells", "assay": "Direct cytotoxic effects on ALL-cells in vitro", "type": "cell-based, human", "source_text": "as §1"}, "GMB cells": {"system": "GMB cells", "assay": "Antibody-dependent cellular cytotoxicity with thioglycollate induced macrophages from NSG mice in vitro", "type": "cell-based, human", "conditions": "for macrophage-mediated killing / lysis of leukemia cells: induced peritoneal NSG macrophages", "source_text": "as §1"}, "leukemic cells": {"system": "leukemic cells", "assay": "Alemtuzumab treatment of macrophage-depleted (clodronate liposomes) tumor-bearing mice", "type": "in vivo, mouse", "conditions": "treated 2 days after injection of clodronate liposomes"}, "GFP/myc/bcl cells [3]": {"system": "GFP/myc/bcl cells", "conditions": "5 mg/kg i.v. days 1, 4, 7, two days after completing treatment", "method": "Mice were treated 14 days after transplantation while showing leukemic phenotype. […] Response to treatment was assessed after 7 days, a leukemic burden was measured by flow cytometry and calculating absolute cell count per organ.\nas §3, §4"}, "[4]": {"assay": "Alemtuzumab distribution in vivo, IVIS fluorometry", "set-up": "species or system mouse", "conditions": "24 h; for tissue distribution of fluorescent signal (spleen, liver, bones): 5 mg/kg i.v.", "procedure": "High signal in dissected whole brain.\n(§2) Mice were sacrificed after 24 h and imaged at an IVIS fluorometer. […] Organs were homogenized and cells from these organs were directly assessed for Alemtuzumab-AlexaFluor750 binding by flow cytometry."}, "GFP+ leukemia cells": {"system": "GFP+ leukemia cells", "assay": "In vivo binding of GFP/myc/bcl cells by labeled Alemtuzumab, flow cytometry of homogenized organs", "set-up": "species or system mouse", "conditions": "5 mg/kg, 24 h", "procedure": "Organs were homogenized and antibody binding to cells detected by flow cytometry.\nas §2"}, "GFP/myc/bcl cells [5]": {"system": "GFP/myc/bcl cells", "assay": "F(ab)2 fragments of Alemtuzumab injected to secondary GFP/myc/bcl mice (Fc-dependent effects)", "type": "in vivo, mouse", "conditions": "injected day 14 after transplantation, vs Alemtuzumab control", "source_text": "as §1"}, "[6]": {"conditions": "listed as Alemtuzumab-AlexaFluor750"}}, "note": "Entries after “also recorded” stand apart in the source; their conditions may differ.", "data": [{"compound": "O=P1(N(CCCl)CCCl)NCCCO1", "note": "(stereo not drawn) [cyclophosphamide]", "values": [{"measurement": "reduction of GFP+ cells found in the brain", "setting": "GFP+ leukemic cells; 150 mg/kg i.p. days 1 and 2", "value": "~300", "unit": "fold"}, {"measurement": "reduction of GFP+ cells in the peripheral blood", "setting": "GFP+ leukemic cells; single agent", "value": "as effectively as the treatment using Alemtuzumab alone"}, {"measurement": "effect on the leukemia in the bone marrow", "setting": "GFP+ leukemic cells", "value": "neither single treatment had much effect"}]}, {"compound": "Alemtuzumab", "values": [{"measurement": "survival vs PBS-treated control", "setting": "GFP/myc/bcl cells [1]", "value": "survived significantly longer; also recorded: significant prolonged survival"}, {"measurement": "complement-dependent cytotoxicity, human serum", "setting": "GFP/myc/bcl cells [2]; media with human serum", "value": "detected in human serum"}, {"measurement": "complement-dependent cytotoxicity, murine sera", "setting": "GFP/myc/bcl cells [2]; media with murine BL6- or NSG-derived serum", "value": "did not mediate Alemtuzumab mediated tumor cell killing; also recorded: not in murine sera"}, {"measurement": "direct cytotoxic effects on ALL-cells", "setting": "ALL-cells", "value": "no direct cytotoxic effects"}, {"measurement": "time within which macrophages killed GMB cells", "setting": "GMB cells; NSG macrophages in the presence of antibody", "value": "≤ 13", "unit": "h"}, {"measurement": "macrophage-mediated killing / lysis of leukemia cells", "setting": "GMB cells", "value": "capable of ALL-cell lysis"}, {"measurement": "reduction of leukemic cells in the spleen of macrophage-depleted mice", "setting": "leukemic cells", "value": "no reduction of leukemic cells in the spleen"}, {"measurement": "effect on GFP+ cells in the brain", "setting": "GFP+ leukemic cells; single agent", "value": "no effect"}, {"measurement": "effect on the leukemia in the bone marrow", "setting": "GFP+ leukemic cells", "value": "neither single treatment had much effect"}, {"measurement": "number of GFP+ cells in bone marrow vs control mice", "setting": "GFP/myc/bcl cells [3]; bone marrow", "value": "approximately the same"}, {"measurement": "number of GFP+ cells in brain vs control mice", "setting": "GFP/myc/bcl cells [3]; brain", "value": "approximately the same"}, {"measurement": "decrease of GFP+ cells in liver vs PBS", "setting": "GFP/myc/bcl cells [3]; liver", "value": "~400", "unit": "fold"}, {"measurement": "decrease of GFP+ cells in peripheral blood vs PBS", "setting": "GFP/myc/bcl cells [3]; peripheral blood", "value": "~30", "unit": "fold"}, {"measurement": "decrease of GFP+ cells in spleen vs PBS", "setting": "GFP/myc/bcl cells [3]; spleen", "value": "~3300", "unit": "fold"}]}, {"compound": "AlexaFluor750 labeled Alemtuzumab: Alemtuzumab labeled with AlexaFluor 750", "values": [{"measurement": "tissue distribution of fluorescent signal (spleen, liver, bones)", "setting": "[4]", "value": "Intense staining of spleen, liver and bones"}, {"measurement": "tissue distribution of fluorescent signal (spleen, liver, bones)", "setting": "[4]; listed as Labeled Alemtuzumab", "value": "focused on spleen and bones"}, {"measurement": "fluorescent signal in dissected whole brain", "setting": "[4]; i.v.", "value": "High signal"}, {"measurement": "antibody binding to GFP+ leukemia cells, bone marrow", "setting": "GFP+ leukemia cells", "value": "increased AlexaFLuor750 signal"}, {"measurement": "antibody binding to GFP+ leukemia cells, spleen", "setting": "GFP+ leukemia cells", "value": "increased AlexaFLuor750 signal"}, {"measurement": "antibody binding to brain-derived leukemia cells", "setting": "GFP+ leukemia cells", "value": "no detection could be detected"}, {"measurement": "antibody binding to GFP+ leukemia cells, bone marrow", "setting": "GFP+ leukemia cells; [6]", "value": "Strong antibody binding"}, {"measurement": "antibody binding to GFP+ leukemia cells, spleen", "setting": "GFP+ leukemia cells; [6]", "value": "Strong antibody binding"}, {"measurement": "antibody binding to brain-derived leukemia cells", "setting": "GFP+ leukemia cells; [6]", "value": "no specific binding"}]}, {"compound": "F(ab)2 fragments of Alemtuzumab: pepsin-digested F(ab)2-fragments of Alemtuzumab lacking the Fc part", "values": [{"measurement": "macrophage-mediated killing / lysis of leukemia cells", "setting": "GMB cells", "value": "no effect"}, {"measurement": "macrophage-mediated killing / lysis of leukemia cells", "setting": "GMB cells; listed as F(ab)2 fragments", "value": "No GFP/myc/bcl-directed killing"}, {"measurement": "therapeutic effect in secondary GFP/myc/bcl mice", "setting": "GFP/myc/bcl cells [5]", "value": "no therapeutic effects"}, {"measurement": "therapeutic effect in secondary GFP/myc/bcl mice", "setting": "GFP/myc/bcl cells [5]; listed as F(ab)2-fragments of Alemtuzumab", "value": "no therapeutic effect"}]}]}
